Results on two compounds are retold here after ChEMBL document CHEMBL1158808, “Eunicellin-based diterpenoids, australins A-D, isolated from the soft coral Cladiella australis” (2005).

Common to all, as to format: functional
One test deals with MCF7. In words: Cytotoxicity against human MCF7 cells after 6 days by MTT assay. Particulars: MCF7, 144 h, read-out: ED50 (the source's name). On the technique in general: Formazan colour is commonly taken as a measure of viable cells.
Another test deals with MDA-MB-231. In words: Cytotoxicity against human MDA-MB-231 cells after 6 days by MTT assay. Particulars: MDA-MB-231, 144 h, read-out: ED50 (the source's name).
For another test, the system named is HepG2. In words: Cytotoxicity against human HepG2 cells after 6 days by MTT assay in presence of DMEM12. Particulars: HepG2, 144 h, read-out: ED50 (the source's name).

Values after ≈ are worked out from the molar mass of the structure shown.

In the case of `C=C1C[C@@]2(O)O[C@H]([C@@H]3[C@@H](C(C)C)CC[C@@](C)(OC(=O)CCC)[C@@H]32)[C@](C)(O)CC[C@@H]1OC(C)=O` [AUSTARLIN B], the EC50 in the test on MCF7 is 8.6 µg/mL (≈ 18.4 µM); with MDA-MB-231 it was 6.4 µg/mL (≈ 13.7 µM); in the test on HepG2, 2.4 µg/mL.

On to `C=C1CC[C@H]([C@@H](C)CO)[C@@H]2[C@H]1C(=O)C[C@@](C)(O)[C@H]1CC[C@@](C)(OC(=O)CCC)[C@@H]2O1` [AUSTARLIN D], for which the EC50 with MDA-MB-231 is 24.4 µg/mL (≈ 57.7 µM).
